ChEMBL document CHEMBL3414489, “3,4-Diaza-bicyclo[4.1.0]hept-4-en-2-one phenoxypropylamine analogs of irdabisant (CEP-26401) as potent histamine-3 receptor inverse agonists with robust wake-promoting activity” (Eur J Med Chem, 2015)

How the values were obtained:
Histamine H3 receptor [1] = target: T1, Histamine H3 receptor (Homo sapiens, UniProt Q9Y5N1); assay: Binding affinity to human histamine H3 receptor
Histamine H3 receptor [2] = target: Histamine H3 receptor (Rattus norvegicus, UniProt Q9QYN8); assay: Binding affinity to rat histamine H3 receptor
[3] = Half life in mouse liver microsomes; type: ADME
[4] = Half life in rat liver microsomes; type: ADME
[5] = Half life in dog liver microsomes; type: ADME, Canis lupus familiaris
[6] = Half life in monkey liver microsomes; type: ADME, Macaca mulatta; conditions: rhesus monkey
[7] = Half life in human liver microsomes; type: ADME
Cytochrome P450 1A2 = target: T2, Cytochrome P450 1A2 (Homo sapiens, UniProt P05177); assay: Inhibition of CYP1A2 (unknown origin); type: ADME
T2 sequence (P05177 whole entry): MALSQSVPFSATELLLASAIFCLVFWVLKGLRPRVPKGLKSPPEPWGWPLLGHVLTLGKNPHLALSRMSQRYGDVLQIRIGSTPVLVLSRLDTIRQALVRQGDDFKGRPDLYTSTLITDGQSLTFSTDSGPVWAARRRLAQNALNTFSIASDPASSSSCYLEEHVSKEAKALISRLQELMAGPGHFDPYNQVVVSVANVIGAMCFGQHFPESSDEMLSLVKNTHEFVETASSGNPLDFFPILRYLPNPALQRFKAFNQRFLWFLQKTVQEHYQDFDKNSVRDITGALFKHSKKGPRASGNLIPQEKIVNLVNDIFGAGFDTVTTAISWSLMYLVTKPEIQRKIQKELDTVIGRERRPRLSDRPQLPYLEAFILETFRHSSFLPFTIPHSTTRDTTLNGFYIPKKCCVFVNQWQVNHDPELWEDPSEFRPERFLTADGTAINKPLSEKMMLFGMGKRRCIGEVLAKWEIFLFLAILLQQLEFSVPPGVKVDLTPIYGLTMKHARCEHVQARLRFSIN

Cytochrome P450 2C9 = Cytochrome P450 2C9 (Homo sapiens, UniProt P11712); assay: Inhibition of CYP2C9 (unknown origin); type: ADME
Cytochrome P450 2C19 = Cytochrome P450 2C19 (Homo sapiens, UniProt P33261); assay: Inhibition of CYP2C19 (unknown origin); type: ADME
Cytochrome P450 2D6 = Cytochrome P450 2D6 (Homo sapiens, UniProt P10635); assay: Inhibition of CYP2D6 (unknown origin); type: ADME
Cytochrome P450 3A4 = Cytochrome P450 3A4 (Homo sapiens, UniProt P08684); assay: Inhibition of CYP3A4 (unknown origin); type: ADME
[8] = Oral bioavailability in rat; type: ADME, organism-based; conditions: in vivo
[9] = Half life in iv dosed rat; type: ADME, organism-based; conditions: in vivo
[10] = Clearance in iv dosed rat; type: ADME, organism-based; conditions: in vivo
Histamine H1 receptor = Histamine H1 receptor (Homo sapiens, UniProt P35367); assay: Inhibition of human H1R
Histamine H2 receptor = Histamine H2 receptor (Homo sapiens, UniProt P25021); assay: Inhibition of human H2R
Histamine H4 receptor = Histamine H4 receptor (Homo sapiens, UniProt Q9H3N8); assay: Inhibition of human H4R
[11] = target: Sodium-dependent dopamine transporter (Homo sapiens, UniProt Q01959); assay: Inhibition of DAT (unknown origin)
[12] = target: T3, Alpha-2C adrenergic receptor (Homo sapiens, UniProt P18825); assay: Inhibition of alpha-2C adrenergic receptor (unknown origin)
T3 sequence (P18825 whole entry): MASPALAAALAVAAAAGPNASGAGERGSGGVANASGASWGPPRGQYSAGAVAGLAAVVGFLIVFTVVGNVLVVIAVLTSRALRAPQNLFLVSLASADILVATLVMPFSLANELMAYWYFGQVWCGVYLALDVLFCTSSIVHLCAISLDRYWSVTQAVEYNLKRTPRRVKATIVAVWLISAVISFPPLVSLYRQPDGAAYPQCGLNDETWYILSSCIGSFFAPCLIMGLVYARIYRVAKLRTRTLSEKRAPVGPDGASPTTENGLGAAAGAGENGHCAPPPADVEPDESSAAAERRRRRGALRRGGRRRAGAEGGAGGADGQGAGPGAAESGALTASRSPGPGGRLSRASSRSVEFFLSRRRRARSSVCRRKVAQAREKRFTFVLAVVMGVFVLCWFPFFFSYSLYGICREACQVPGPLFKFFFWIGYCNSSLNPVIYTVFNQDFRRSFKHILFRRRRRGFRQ

[13] = Aqueous solubility of the compound at pH 7.4; type: physicochemical
[14] = Aqueous solubility of the compound at pH 2; type: physicochemical
[15] = Permeability across human Caco2 cells; type: ADME, cell-based; conditions: Caco-2
[16] = Plasma protein binding in rat; type: ADME, cell-free; conditions: read-out: PPB (converted)
[17] = Plasma protein binding in dog; type: ADME, cell-free, Canis lupus familiaris; conditions: read-out: PPB (converted)
[18] = Plasma protein binding in human; type: ADME, cell-free; conditions: read-out: PPB (converted)
[19] = Half life in rat at 1 mg/kg, iv; type: ADME, organism-based; design: dose 1 mg/kg, route intravenous; conditions: in vivo
[20] = Volume of distribution at steady state in rat at 1 mg/kg, iv; type: ADME, organism-based; design: dose 1 mg/kg, route intravenous; conditions: in vivo, read-out: Vdss
[21] = Clearance in rat at 1 mg/kg, iv; type: ADME, organism-based; design: dose 1 mg/kg, route intravenous; conditions: in vivo
[22] = AUC (0 to t) in rat at 10 mg/kg, po; type: ADME, organism-based; design: dose 10 mg/kg, route oral; conditions: plasma
[23] = Cmax in rat at 10 mg/kg, po; type: ADME, organism-based; design: dose 10 mg/kg, route oral; conditions: in vivo
[24] = Oral bioavailability in rat at 10 mg/kg; type: ADME, organism-based; conditions: in vivo
[25] = Ratio of drug level in brain to plasma in rat at 10 mg/kg, ip after 2 hrs; type: ADME, organism-based; design: dose 10 mg/kg, route intraperitoneal; conditions: read-out: BPR
Rattus norvegicus [26] = organism: Rattus norvegicus; assay: Inhibition of RAMH-induced dipsogenia in rat; type: functional
Rattus norvegicus [27] = assay: Wake promoting activity in rat EEG/EMG model assessed as AUC of cumulative wake at 3 mg/kg, ip up to 4 hrs relative to vehicle-treated control; type: functional, organism-based; design: dose 3 mg/kg, time < 4 hr
Rattus norvegicus [28] = assay: Wake promoting activity in rat EEG/EMG model assessed as AUC of cumulative wake at 30 mg/kg, ip up to 5.5 hrs relative to vehicle-treated control; type: functional, organism-based; design: dose 30 mg/kg, time < 5.5 hr
Rattus norvegicus [29] = assay: Toxicity in rat at 3 to 30 mg/kg, ip; type: organism-based; design: dose 3-30 mg/kg, route intraperitoneal; conditions: in vivo
Rattus norvegicus [30] = assay: Toxicity in po dosed rat; type: organism-based; conditions: in vivo
Rattus norvegicus [31] = assay: Wake promoting activity in rat EEG/EMG model assessed as cumulative wake time at 3 mg/kg, ip after 22 hrs relative to vehicle-treated control; type: functional; conditions: route intraperitoneal
Rattus norvegicus [32] = assay: Wake promoting activity in rat EEG/EMG model assessed as cumulative wake time at 10 mg/kg, ip after 22 hrs relative to vehicle-treated control; type: functional; conditions: route intraperitoneal
Rattus norvegicus [33] = assay: Wake promoting activity in rat EEG/EMG model assessed as cumulative wake time at 30 mg/kg, ip after 22 hrs relative to vehicle-treated control; type: functional; conditions: route intraperitoneal
Histamine H3 receptor [34] = target: T1, Histamine H3 receptor; assay: Inverse agonist activity at human H3R expressed in CHO cells assessed as inhibition of RAMH-induced [35S]GTPgammaS binding relative to control; type: functional, cell-based
Rattus norvegicus [35] = organism: Rattus norvegicus; conditions: 10 mg/kg
Rattus norvegicus [36] = organism: Rattus norvegicus; conditions: 30 mg/kg

Histamine H3 receptor (Rattus norvegicus, UniProt Q9QYN8), sequence (Q9QYN8 whole entry): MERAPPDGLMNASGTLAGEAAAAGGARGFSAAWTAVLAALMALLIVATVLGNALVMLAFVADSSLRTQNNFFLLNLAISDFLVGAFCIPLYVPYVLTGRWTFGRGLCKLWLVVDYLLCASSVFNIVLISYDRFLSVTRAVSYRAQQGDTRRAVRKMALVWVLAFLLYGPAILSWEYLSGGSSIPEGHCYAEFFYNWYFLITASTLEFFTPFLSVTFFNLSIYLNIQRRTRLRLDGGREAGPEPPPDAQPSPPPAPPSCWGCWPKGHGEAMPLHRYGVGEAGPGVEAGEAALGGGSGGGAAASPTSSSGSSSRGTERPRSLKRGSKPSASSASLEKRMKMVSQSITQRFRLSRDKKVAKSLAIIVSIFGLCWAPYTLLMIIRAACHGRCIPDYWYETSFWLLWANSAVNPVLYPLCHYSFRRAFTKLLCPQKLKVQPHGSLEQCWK
T1 sequence (Q9Y5N1 whole entry): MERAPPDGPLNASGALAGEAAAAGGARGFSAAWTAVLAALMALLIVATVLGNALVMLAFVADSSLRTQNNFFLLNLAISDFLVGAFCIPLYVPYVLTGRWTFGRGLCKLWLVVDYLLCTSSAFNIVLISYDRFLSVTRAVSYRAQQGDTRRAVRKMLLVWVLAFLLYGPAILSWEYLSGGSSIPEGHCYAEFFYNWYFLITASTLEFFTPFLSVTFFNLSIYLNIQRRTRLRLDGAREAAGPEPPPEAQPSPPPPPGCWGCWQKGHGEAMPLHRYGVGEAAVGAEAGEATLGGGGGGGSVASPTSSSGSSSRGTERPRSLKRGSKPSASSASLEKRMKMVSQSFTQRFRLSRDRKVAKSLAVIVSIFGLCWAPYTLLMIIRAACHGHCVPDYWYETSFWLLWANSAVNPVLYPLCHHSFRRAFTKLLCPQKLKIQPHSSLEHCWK
Histamine H2 receptor, sequence (P25021 whole entry): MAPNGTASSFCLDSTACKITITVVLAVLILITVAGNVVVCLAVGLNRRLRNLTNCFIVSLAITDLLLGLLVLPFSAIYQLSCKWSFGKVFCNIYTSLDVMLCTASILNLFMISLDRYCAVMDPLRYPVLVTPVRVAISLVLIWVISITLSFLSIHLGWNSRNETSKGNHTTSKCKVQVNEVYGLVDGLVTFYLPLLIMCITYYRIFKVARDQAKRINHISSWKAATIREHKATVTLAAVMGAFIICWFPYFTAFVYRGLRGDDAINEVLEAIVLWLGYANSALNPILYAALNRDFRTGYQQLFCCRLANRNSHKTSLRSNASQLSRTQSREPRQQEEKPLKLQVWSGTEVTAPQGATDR
Histamine H4 receptor, sequence (Q9H3N8 whole entry): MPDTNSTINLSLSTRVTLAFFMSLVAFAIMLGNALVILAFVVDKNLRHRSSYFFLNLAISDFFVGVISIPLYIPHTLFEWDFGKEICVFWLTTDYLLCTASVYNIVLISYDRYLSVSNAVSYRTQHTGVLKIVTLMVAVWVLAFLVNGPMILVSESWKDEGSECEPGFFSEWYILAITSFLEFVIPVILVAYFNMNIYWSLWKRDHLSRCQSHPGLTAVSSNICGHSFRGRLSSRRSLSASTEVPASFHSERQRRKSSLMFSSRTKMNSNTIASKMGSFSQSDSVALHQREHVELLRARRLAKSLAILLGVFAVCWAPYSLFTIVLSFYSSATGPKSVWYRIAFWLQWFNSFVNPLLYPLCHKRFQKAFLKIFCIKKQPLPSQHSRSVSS
Sodium-dependent dopamine transporter, sequence (Q01959 whole entry): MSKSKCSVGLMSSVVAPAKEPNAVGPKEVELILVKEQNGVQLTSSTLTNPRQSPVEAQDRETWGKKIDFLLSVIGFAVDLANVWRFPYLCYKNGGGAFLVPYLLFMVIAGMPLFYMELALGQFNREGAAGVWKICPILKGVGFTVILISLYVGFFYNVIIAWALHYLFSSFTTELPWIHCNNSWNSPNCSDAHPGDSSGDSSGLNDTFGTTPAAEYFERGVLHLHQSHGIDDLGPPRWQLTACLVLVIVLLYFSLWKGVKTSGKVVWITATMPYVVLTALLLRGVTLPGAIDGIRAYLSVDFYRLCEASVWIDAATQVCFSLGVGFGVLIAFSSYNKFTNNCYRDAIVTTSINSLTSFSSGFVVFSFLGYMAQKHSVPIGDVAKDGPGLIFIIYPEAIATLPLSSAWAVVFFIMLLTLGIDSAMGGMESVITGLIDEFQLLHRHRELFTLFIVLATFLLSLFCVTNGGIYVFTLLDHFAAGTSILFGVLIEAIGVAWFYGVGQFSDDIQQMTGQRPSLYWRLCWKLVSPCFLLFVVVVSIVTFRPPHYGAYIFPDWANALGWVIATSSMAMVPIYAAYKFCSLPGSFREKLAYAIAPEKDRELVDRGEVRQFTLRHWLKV
Cytochrome P450 2C9, sequence (P11712 whole entry): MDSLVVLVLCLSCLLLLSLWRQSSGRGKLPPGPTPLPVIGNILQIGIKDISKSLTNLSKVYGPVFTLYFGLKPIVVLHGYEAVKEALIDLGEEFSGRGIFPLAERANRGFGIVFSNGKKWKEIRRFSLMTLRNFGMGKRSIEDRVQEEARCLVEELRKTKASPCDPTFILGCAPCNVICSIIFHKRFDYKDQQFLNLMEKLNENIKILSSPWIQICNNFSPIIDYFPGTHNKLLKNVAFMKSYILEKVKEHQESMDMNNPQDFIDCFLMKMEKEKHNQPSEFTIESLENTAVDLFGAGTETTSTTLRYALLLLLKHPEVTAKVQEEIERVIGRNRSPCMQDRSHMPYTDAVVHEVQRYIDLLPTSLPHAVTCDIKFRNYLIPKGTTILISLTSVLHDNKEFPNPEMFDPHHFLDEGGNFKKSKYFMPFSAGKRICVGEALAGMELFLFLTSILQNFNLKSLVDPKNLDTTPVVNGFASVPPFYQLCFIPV
Histamine H1 receptor, sequence (P35367 whole entry): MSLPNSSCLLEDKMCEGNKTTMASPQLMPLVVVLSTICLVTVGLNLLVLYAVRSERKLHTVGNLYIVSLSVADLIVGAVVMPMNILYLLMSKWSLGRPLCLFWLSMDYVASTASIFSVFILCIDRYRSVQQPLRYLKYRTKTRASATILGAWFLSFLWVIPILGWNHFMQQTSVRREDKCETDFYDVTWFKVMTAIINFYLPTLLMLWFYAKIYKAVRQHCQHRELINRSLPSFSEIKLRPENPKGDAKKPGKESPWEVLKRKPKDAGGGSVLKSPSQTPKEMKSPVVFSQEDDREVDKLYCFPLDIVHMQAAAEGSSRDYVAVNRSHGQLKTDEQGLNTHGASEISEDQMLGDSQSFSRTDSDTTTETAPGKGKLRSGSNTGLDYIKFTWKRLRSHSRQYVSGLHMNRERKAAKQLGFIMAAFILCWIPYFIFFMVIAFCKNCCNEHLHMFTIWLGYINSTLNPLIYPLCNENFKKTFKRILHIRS
Cytochrome P450 2D6, sequence (P10635 whole entry): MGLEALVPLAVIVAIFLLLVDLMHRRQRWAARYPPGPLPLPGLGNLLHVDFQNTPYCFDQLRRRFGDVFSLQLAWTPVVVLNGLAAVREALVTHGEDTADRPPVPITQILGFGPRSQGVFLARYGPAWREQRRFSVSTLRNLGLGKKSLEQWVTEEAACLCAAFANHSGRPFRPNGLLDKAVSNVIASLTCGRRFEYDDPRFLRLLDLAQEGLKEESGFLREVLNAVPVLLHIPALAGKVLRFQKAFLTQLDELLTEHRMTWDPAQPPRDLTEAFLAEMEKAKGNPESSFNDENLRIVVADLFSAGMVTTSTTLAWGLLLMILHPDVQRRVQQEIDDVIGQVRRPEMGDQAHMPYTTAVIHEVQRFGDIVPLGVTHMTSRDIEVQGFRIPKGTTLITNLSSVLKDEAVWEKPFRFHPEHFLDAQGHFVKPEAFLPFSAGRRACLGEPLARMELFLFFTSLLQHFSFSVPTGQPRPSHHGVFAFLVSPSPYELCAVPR
Cytochrome P450 2C19, sequence (P33261 whole entry): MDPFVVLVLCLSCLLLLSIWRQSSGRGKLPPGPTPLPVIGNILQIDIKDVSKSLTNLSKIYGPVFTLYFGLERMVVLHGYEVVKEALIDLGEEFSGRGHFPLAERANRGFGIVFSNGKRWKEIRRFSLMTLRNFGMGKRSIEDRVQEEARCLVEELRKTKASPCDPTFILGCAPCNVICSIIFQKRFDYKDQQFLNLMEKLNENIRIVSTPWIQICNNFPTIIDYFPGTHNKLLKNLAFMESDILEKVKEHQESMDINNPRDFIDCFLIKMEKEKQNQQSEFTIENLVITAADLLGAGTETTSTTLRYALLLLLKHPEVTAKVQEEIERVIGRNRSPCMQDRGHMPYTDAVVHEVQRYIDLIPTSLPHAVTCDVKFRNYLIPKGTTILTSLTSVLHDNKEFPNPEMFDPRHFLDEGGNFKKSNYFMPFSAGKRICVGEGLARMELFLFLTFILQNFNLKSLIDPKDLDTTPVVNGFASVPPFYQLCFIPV
Cytochrome P450 3A4, sequence (P08684 whole entry): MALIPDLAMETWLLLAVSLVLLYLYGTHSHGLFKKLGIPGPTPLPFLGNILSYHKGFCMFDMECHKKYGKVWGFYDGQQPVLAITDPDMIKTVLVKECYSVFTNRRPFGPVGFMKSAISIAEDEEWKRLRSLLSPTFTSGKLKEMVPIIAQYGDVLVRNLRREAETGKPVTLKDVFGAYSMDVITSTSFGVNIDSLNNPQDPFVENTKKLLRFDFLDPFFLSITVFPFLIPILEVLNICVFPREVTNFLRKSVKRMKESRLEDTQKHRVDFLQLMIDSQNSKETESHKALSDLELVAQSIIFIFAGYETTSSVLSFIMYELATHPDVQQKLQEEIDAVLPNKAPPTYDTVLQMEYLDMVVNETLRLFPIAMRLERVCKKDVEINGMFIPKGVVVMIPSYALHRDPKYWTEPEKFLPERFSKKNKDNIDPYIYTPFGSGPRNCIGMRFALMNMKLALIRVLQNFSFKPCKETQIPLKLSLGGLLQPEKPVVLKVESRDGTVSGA

C[C@H]1CCCN1CCCOc1ccc(C2=NNC(=O)C3CC23)cc1 (mixture of isomers)
Ki (Histamine H3 receptor [1]): 13 nM
Ki (Histamine H3 receptor [2]): 57 nM

C[C@H](COc1ccc(C2=NNC(=O)C3CC23)cc1)CN1CCC[C@H]1C (mixture of isomers)
Ki (Histamine H3 receptor [1]): 2.3 nM
Ki (Histamine H3 receptor [2]): 9.8 nM
half-life [3]: > 40 min
half-life [4]: > 40 min
half-life [5]: > 40 min
half-life [6]: > 40 min
half-life [7]: > 40 min
IC50 (Cytochrome P450 1A2): > 30 µM
IC50 (Cytochrome P450 2C9): > 30 µM
IC50 (Cytochrome P450 2C19): > 30 µM
IC50 (Cytochrome P450 2D6): > 30 µM
IC50 (Cytochrome P450 3A4): > 30 µM
bioavailability [8]: > 25%
half-life [9]: 108 min
clearance [10]: 19 mL/min/kg

C[C@@H]1CCCN1CCCOc1ccc(C2=NNC(=O)C3CC23)cc1 (some centres not stated)
Ki (Histamine H3 receptor [1]): 3.7 nM
Ki (Histamine H3 receptor [2]): 13 nM
half-life [3]: > 40 min
half-life [4]: > 40 min
half-life [5]: > 40 min
half-life [6]: > 40 min
half-life [7]: > 40 min
IC50 (Cytochrome P450 1A2): > 30 µM
bioavailability [8]: > 25%
half-life [9]: 84 min
clearance [10]: 11 mL/min/kg

Cc1cc(OCCCN2CCC[C@H]2C)ccc1C1=NNC(=O)C2CC12 (mixture of isomers)
Ki (Histamine H3 receptor [1]): 7 nM
Ki (Histamine H3 receptor [2]): 66 nM

C[C@@H]1CCCN1CCCOc1ccc(C2=NNC(=O)[C@H]3C[C@@H]23)cc1
Ki (Histamine H3 receptor [1]): 4.5 nM
Ki (Histamine H3 receptor [2]): 14 nM
half-life [3]: > 40 min
half-life [4]: > 40 min
half-life [6]: > 40 min
half-life [7]: > 40 min
IC50 (Cytochrome P450 1A2): > 30 µM
Ki (Histamine H1 receptor): > 10 µM
Ki (Histamine H2 receptor): > 10 µM
Ki (Histamine H4 receptor): > 10 µM
Ki [11]: 6.6 µM
Ki [12]: 1800 nM
solubility [13]: > 4000 µg/mL
solubility [14]: > 4000 µg/mL
Papp [15]: 15.7 ×10⁻⁶ cm/s
fraction unbound [16]: 0.46
fraction unbound [17]: 0.47
fraction unbound [18]: 0.39
half-life [19]: 84 min
Vd [20]: 2.5 L/kg
clearance [21]: 20 mL/min/kg
AUC(0-t) [22]: 4660 ng·h/mL
Cmax [23]: 738 ng/mL
bioavailability [24]: 46%
Kp at 2 h [25]: 3.1
Activity (Rattus norvegicus [26]): Dose-dependent effect
ED50 (Rattus norvegicus [26]): 0.21 mg/kg
AUC (Rattus norvegicus [27]): 134 min
AUC (Rattus norvegicus [28]): 231 min
Activity (Rattus norvegicus [29]): Non-toxic
Activity (Rattus norvegicus [30]): Non-toxic
Time (Rattus norvegicus [31]): 85 min
Time (Rattus norvegicus [32]): 106 min
Time (Rattus norvegicus [33]): 130 min
EC50 (Histamine H3 receptor [34]): 0.6 nM
AUC (Rattus norvegicus [35]): 192 min
AUC (Rattus norvegicus [36]): 221 min
